Results as given in patent US20090238881A1, “IONOPHORE ANTIBIOTIC FORMULATIONS” (priority 2000, published 2009).

Key:
[1] = Solubility of monensin in propylene glycol; format: physicochemical
Description: There is an indication that 50% of the monensin was found in solution in the propylene glycol.
We have found monopropylene glycol to be a poor solvent of monensin. While we have in NZ 272574/272940 referred to monopropylene glycol as being an antifreeze agent in which the ionophore antibiotic is sparingly soluble, we do appreciate that solubility to the extent referred to in Example 1 of EP 0,139,595 may be achieved when induced with ultrasound or heating.

[2] = cited from earlier work
[3] = EP 0,139,595 Example 1: 250 g mycelium (10% monensin), 1250 cc propylene glycol, room temperature, 2 hours ultrasound; cited from earlier work

In the case of monensin, the “solubility in monopropylene glycol” value [1] is listed as “poor solvent”, the solubility in water [2] is listed as “only slightly soluble in water” and the “monensin found in solution in the propylene glycol” value [3] is listed as 50%.
